Key:
[1] = Hepatotoxicity in CCl4-induced liver damage in ICR mouse model assessed as reduction in sGPT level at 10 mg/kg relative to control; assay type: toxicity, organism-based; design: scale not given: the % may be the effect or the level left; settings: in vivo
[2] = Hepatotoxicity in CCl4-induced liver damage in ICR mouse model assessed as reduction in sGOT level at 10 mg/kg relative to control; assay type: toxicity, organism-based; design: scale not given: the % may be the effect or the level left; settings: in vivo
HepG2 [3] = assay: Hepatoprotective activity against H2O2-induced cell death in human HepG2 cells assessed as elevated level AST at 65.7 uM; assay type: functional
HepG2 [4] = assay: Hepatoprotective activity against H2O2-induced cell death in human HepG2 cells assessed as elevated level ALT at 65.7 uM; assay type: functional
[5] = Antiproliferative activity against rat HSC-T6 assessed as reduction in cell viability at 100 uM measured at 48 hrs by MTT assay relative to control; assay type: functional
Mus musculus = assay: Hepatoprotective activity in mouse model of D-GaIN/LPS-induced liver injury assessed as inhibition of beta-glucuronidase secretion at […] relative to control; assay type: functional; design: scale not given: the % may be the effect or the level left; settings: dose 10 µg/ml

Work on `C=C(C)[C@@H]1CC[C@]2(C)CC[C@]3(C)[C@H](CC[C@@H]4[C@@]5(C)CC[C@@H](OC(=O)CCCCCCCCCCCCCCC)C(C)(C)[C@@H]5CC[C@]43C)[C@@H]12` yielded an Activity [1] of 6.9% and an Activity [2] of 9.2%.

`C[C@H]1C(=O)CC[C@@H]2[C@]1(C)CC[C@H]1[C@@]2(C)CC[C@@]2(C)[C@@H]3CC(C)(C)CC[C@]3(C)CC[C@]12C` [FRIEDELINE] gave an Activity (HepG2 [3]) of 67.5% and an Activity (HepG2 [4]) of 30.8%.

For `C[C@H]1[C@@H](O)CC[C@@H]2[C@]1(C)CC[C@H]1[C@@]2(C)CC[C@@]2(C)[C@@H]3CC(C)(C)CC[C@]3(C)CC[C@]12C` [EPIFRIEDELINOL], the Activity [5] was 61%.

With `CC(C)=CCC[C@]1(C)CC[C@]2(C)[C@H]3CC=C4[C@@H](CC[C@H](O)C4(C)C)[C@]3(C)CC[C@@]2(C)C1` the Activity (Mus musculus) was 57%.
